Laboratory results published in patent US9206136B2, “Pyrazolyl-based carboxamides I” (Grünenthal GmbH, priority 2013, dated 2015).

Experiments:
[1] = molecular target: T1, CRAC channel (endogenous SOC in HEK293 cells) (Homo sapiens, UniProt Q96D31); test: HEK Calcium Influx Assay (FLIPR); type: cell-based; settings: 10 μM compound, thapsigargin store depletion, Ca2+ signal 9.5-10 min post-administration, read-out: % inhib. [@ 10 μM] FLIPR
T1 construct: host or cells: HEK293
Protocol: Compounds of the invention have been tested for their effects on CRAC channels according to the following or similar procedures.
The effect of compounds of the invention on intracellular [Ca^2+] was tested in the HEK293 cell line (ECACC).
HEK293 cells were cultured in DMEM/F12/Glutamax (Gibco) containing 10% FCS (Gibco), and maintained at 37° C., 5% CO2. Cell were split twice a week [3·10^6 (Mon-Thu) and 1·10^6 (Thu-Mon) cells/50 ml medium in T-175 ZK culture flasks, respectively]. 24 hours pre-experiment, cells were seeded on 96 well plates (Poly-D-Lysine 96well Black/Clear Plate, BD Biocoat REF 356640) at a density of 40,000 cells/well in DMEM/F12 (Gibco) containing 10% FCS (Gibco), and maintained at 37° C., 5% CO2.
Prior to store-depletion, cell culture medium was removed and cells were loaded with the a Ca^2+-sensitive fluorescent dye comprised within the Calcium-4-assay kit (Molecular Devices) in nominally Ca^2+-free HBS buffer (140 mM NaCl, 4 mM KCl, 0.2 mM MgCl2, 11 mM D-glucose, and 10 mM HEPES, pH 7.4) according to manufacturer's instruction for 60 min at 37° C., 5% CO2.
Passive depletion of intracellular Ca^2+-stores was then triggered by employing the SERCA inhibitor thapsigargin (2 μM final) for 10 min in the dark (rt). To prevent immediate Ca^2+-entry via the activated Store-operated channels (SOCs), cells were maintained in Ca^2+-free HBS buffer comprising 100 μM EGTA during store-depletion.
Intracellular changes in [Ca^2+] were subsequently monitored with the FLIPR device (Molecular Devices). In brief, baseline imaging post-store depletion was allowed for 1 min before adjusting the extracellular buffer to 3 mM CaCl2. Increases in intracellular [Ca^2+] due to pre-activated SOC channels were monitored for 15 min until intracellular Ca^2+ levels had declined into a steady-state. Finally, compounds were administered and Ca^2+ signals were recorded for additional 10 min.
Inhibition of endogenous SOC in HEK293 cells was quantified employing the average Ca^2+ signal measured from 9.5-10 min post-administration. Zero percent inhibition (MAX) was defined as the Ca^2+ signal recorded from wells to which DMSO-only had been added instead of compound. Hundred percent inhibition (MIN) was defined as the signal obtained from wells in which cells haven't been treated with TG prior to Ca^2+ addition and to which DMSO-only had been added instead of compound. For routine IC50 determinations of compounds, 8 concentrations of a serial dilution (1:3.16) were tested, starting off from 10 μM. Reliable IC50's could consequently be determined only, if they were at least sub 2.5-3 μM.

[2] = tested on: Interleukin-2 (IL-2) production/release in Jurkat T cell line clone E6-1; test: Jurkat IL-2 Production Assay; type: cell-based; settings: Homo sapiens; Jurkat T cells stimulated with 15 μg/ml PHA for 22 hours; IL-2 in supernatant (AlphaLisa)
Protocol: Jurkat IL-2 Production Assay
The effect of compounds of the invention on Interleukin-2 (IL-2) production/release was tested in the Jurkat T cell line (ECACC) clone E6-1.
Jurkat T cells were cultured in DMEM/F12/Glutamax (Gibco) containing 10% FCS (Gibco), and maintained at 37° C., 5% CO2. Cells were split twice a week [5·10^6 (Mon-Thu) and 1·10^7 (Thu-Mon) cells/50 ml medium in T-175 ZK culture flasks, respectively].
Prior to experiment, cells were seeded on 96 well plates (Cellstar 96 Well; Cat No. 655180, Greiner bio-one) at a density of 5·10^5 cells/well in DMEM/F12/Glutamax (Gibco) containing 10% FCS (Gibco), and incubated for 60 min at 37° C., 5% CO2. Subsequently, compounds were added and cells were allowed to incubate for 30 min at 37° C., 5% CO2. Cells were then stimulated with 15 μg/ml Phyto-hemagglutinin (PHA; Sigma) for 22 hours at 37° C., 5% CO2.
Before sampling of the supernatants, cells were spun down (200*g/5 min/RT). The amount of IL-2 released into the supernatant was quantified with the human IL-2 AlphaLisa kit (Perkin Elmer) according to manufacturer's instructions. Luminescence proximity measurements were carried out in the Synergy H4 reader (BioTek) employing the fluorescence setting of the reader (ex: 680/30 nm; em: 620/40 nm).
Inhibition of IL-Production/Release in/from Jurkat T Cells Cells was Quantified as Follows:
Zero percent inhibition (MAX) was defined as the [IL-2] determined in supernatants derived from cells to which PHA & DMSO-only had been added instead of compound. Hundred percent inhibition (MIN) was defined as the [IL-2] determined in supernatants derived from cells that had been pre-treated with 1 μM CyclosporineA (Sigma) before the addition of 15 μg/ml PHA.
For routine IC50 determinations of compounds, 8 concentrations of a serial dilution (1:3.16) were tested, starting off from 10 μM.

T1 sequence (Q96D31 whole entry): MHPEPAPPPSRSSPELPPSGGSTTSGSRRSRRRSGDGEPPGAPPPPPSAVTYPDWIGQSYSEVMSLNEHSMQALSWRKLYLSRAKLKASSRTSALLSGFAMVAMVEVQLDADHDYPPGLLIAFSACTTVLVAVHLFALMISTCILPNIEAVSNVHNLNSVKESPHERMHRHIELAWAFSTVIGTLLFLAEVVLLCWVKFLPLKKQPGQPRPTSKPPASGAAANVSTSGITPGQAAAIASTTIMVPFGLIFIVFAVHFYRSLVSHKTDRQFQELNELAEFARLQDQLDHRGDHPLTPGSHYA

## Cc1ccc(-c2nccs2)cc1-c1cc(C(=O)Nc2ccncc2F)nn1C [Example 1, N-(3-Fluoro-pyridin-4-yl)-1-methyl-5-(2-methyl-5-thiazol-2-yl-phenyl)-1H-pyrazole-3-carboxylic acid amide]
[1]
  inhibition at 10 µM: > 70%
[2]
  IC50: 1 to 5 µM

## Cc1ccc(-c2ncco2)cc1-c1cc(C(=O)Nc2ccncc2F)nn1C [Example 2, N-(3-Fluoro-pyridin-4-yl)-1-methyl-5-(2-methyl-5-oxazol-2-yl-phenyl)-1H-pyrazole-3-carboxylic acid amide]
[1]
  inhibition at 10 µM: 50 to 70%

## Cc1ccc(-c2nccs2)cc1-c1cc(C(=O)Nc2c(F)cccc2F)nn1C [Example 3, N-(2,6-Difluoro-phenyl)-1-methyl-5-(2-methyl-5-thiazol-2-yl-phenyl)-1H-pyrazole-3-carboxylic acid amide]
[1]
  inhibition at 10 µM: < 50%
[2]
  IC50: < 0.5 µM

## COc1ccc(NC(=O)c2cc(-c3cc(-c4nccs4)ccc3C)n(C)n2)cc1 [Example 4, N-(4-Methoxyphenyl)-1-methyl-5-(2-methyl-5-thiazol-2-yl-phenyl)-1H-pyrazole-3-carboxylic acid amide]
[1]
  inhibition at 10 µM: 50 to 70%
[2]
  IC50: 1 to 5 µM

## Cc1ccc(-c2nccs2)cc1-c1cc(C(=O)Nc2ccc(F)cc2)nn1C [Example 5, N-(4-Fluorophenyl)-1-methyl-5-(2-methyl-5-thiazol-2-yl-phenyl)-1H-pyrazole-3-carboxylic acid amide]
[1]
  inhibition at 10 µM: 50 to 70%
[2]
  IC50: 1 to 5 µM

## Cc1cnccc1NC(=O)c1cc(-c2cc(-c3nccs3)ccc2C)n(C)n1 [Example 6, 1-Methyl-N-(3-methyl-pyridin-4-yl)-5-(2-methyl-5-thiazol-2-yl-phenyl)-1H-pyrazole-3-carboxylic acid amide]
[1]
  inhibition at 10 µM: 50 to 70%
[2]
  IC50: 1 to 5 µM

## COc1ccc(-c2nccs2)cc1-c1cc(C(=O)Nc2ccncc2F)nn1C [Example 7, N-(3-Fluoro-pyridin-4-yl)-5-(2-methoxy-5-thiazol-2-yl-phenyl)-1-methyl-1H-pyrazole-3-carboxylic acid amide]
[1]
  inhibition at 10 µM: < 50%
[2]
  IC50: 0.5 to 1 µM

## COc1ccc(-c2nccs2)cc1-c1cc(C(=O)Nc2c(F)cccc2F)nn1C [Example 8, N-(2,6-Difluoro-phenyl)-5-(2-methoxy-5-thiazol-2-yl-phenyl)-1-methyl-1H-pyrazole-3-carboxylic acid amide]
[1]
  inhibition at 10 µM: > 70%
[2]
  IC50: 0.5 to 1 µM

## Cn1nc(C(=O)Nc2ccncc2F)cc1-c1cc(-c2nccs2)ccc1Cl [Example 9, 5-(2-Chloro-5-thiazol-2-yl-phenyl)-N-(3-fluoro-pyridin-4-yl)-1-methyl-1H-pyrazole-3-carboxylic acid amide]
[1]
  inhibition at 10 µM: 50 to 70%
[2]
  IC50: 1 to 5 µM

## Cn1nc(C(=O)Nc2c(F)cccc2F)cc1-c1cc(-c2nccs2)ccc1Cl [Example 10, 5-(2-Chloro-5-thiazol-2-yl-phenyl)-N-(2,6-difluoro-phenyl)-1-methyl-1H-pyrazole-3-carboxylic acid amide]
[1]
  inhibition at 10 µM: < 50%
[2]
  IC50: < 0.5 µM

## Cc1ccc(-c2ccncc2)cc1-c1cc(C(=O)Nc2ccncc2F)nn1C [Example 11, N-(3-Fluoro-pyridin-4-yl)-1-methyl-5-(2-methyl-5-pyridin-4-yl-phenyl)-1H-pyrazole-3-carboxylic acid amide]
[1]
  inhibition at 10 µM: > 70%
[2]
  IC50: 1 to 5 µM

## Cc1ccc(-c2ccncc2)cc1-c1cc(C(=O)Nc2c(F)cccc2F)nn1C [Example 12, N-(2,6-Difluoro-phenyl)-1-methyl-5-(2-methyl-5-pyridin-4-yl-phenyl)-1H-pyrazole-3-carboxylic acid amide]
[1]
  inhibition at 10 µM: > 70%
[2]
  IC50: < 0.5 µM

## Cc1ccc(-c2cncnc2)cc1-c1cc(C(=O)Nc2c(F)cccc2F)nn1C [Example 13, N-(2,6-Difluoro-phenyl)-1-methyl-5-(2-methyl-5-pyrimidin-5-yl-phenyl)-1H-pyrazole-3-carboxylic acid amide]
[1]
  inhibition at 10 µM: < 50%
[2]
  IC50: < 0.5 µM

## Cn1nc(C(=O)Nc2c(F)cccc2F)cc1-c1cccc(-c2nccs2)c1 [Example 14, N-(2,6-Difluoro-phenyl)-1-methyl-5-(3-thiazol-2-yl-phenyl)-1H-pyrazole-3-carboxylic acid amide]
[1]
  inhibition at 10 µM: > 70%
[2]
  IC50: < 0.5 µM

## COc1ccc(C2CC2)cc1-c1cc(C(=O)Nc2ccncc2F)nn1C [Example 15, 5-(5-Cyclopropyl-2-methoxy-phenyl)-N-(3-fluoro-pyridin-4-yl)-1-methyl-1H-pyrazole-3-carboxylic acid amide]
[1]
  inhibition at 10 µM: > 70%
[2]
  IC50: 1 to 5 µM

## COc1ccc(C2CC2)cc1-c1cc(C(=O)Nc2c(F)cccc2F)nn1C [Example 16, 5-(5-Cyclopropyl-2-methoxy-phenyl)-N-(2,6-difluoro-phenyl)-1-methyl-1H-pyrazole-3-carboxylic acid amide]
[1]
  inhibition at 10 µM: > 70%
[2]
  IC50: < 0.5 µM

## Cc1cnc(C2CC2)nc1-c1cc(C(=O)Nc2c(F)cccc2F)nn1C [Example 17, 5-(2-Cyclopropyl-5-methyl-pyrimidin-4-yl)-N-(2,6-difluoro-phenyl)-1-methyl-1H-pyrazole-3-carboxylic acid amide]
[1]
  inhibition at 10 µM: 50 to 70%

## Cc1ccc(-c2ncco2)cc1-c1cc(C(=O)Nc2c(F)cccc2F)nn1C [Example 18, N-(2,6-Difluoro-phenyl)-1-methyl-5-(2-methyl-5-oxazol-2-yl-phenyl)-1H-pyrazole-3-carboxylic acid amide]
[1]
  inhibition at 10 µM: < 50%
[2]
  IC50: 0.5 to 1 µM

## Cc1noc(-c2ccc(C)c(-c3cc(C(=O)Nc4c(F)cccc4F)nn3C)c2)n1 [Example 19, N-(2,6-Difluoro-phenyl)-1-methyl-5-[2-methyl-5-(3-methyl-[1,2,4]oxadiazol-5-yl)-phenyl]-1H-pyrazole-3-carboxylic acid amide]
[1]
  inhibition at 10 µM: < 50%
[2]
  IC50: 1 to 5 µM

## Cc1ccc(-c2ccnc(N)c2)cc1-c1cc(C(=O)Nc2c(F)cccc2F)nn1C [Example 20, 5-[5-(2-Amino-pyridin-4-yl)-2-methyl-phenyl]-N-(2,6-difluoro-phenyl)-1-methyl-1H-pyrazole-3-carboxylic acid amide]
[1]
  inhibition at 10 µM: 50 to 70%
[2]
  IC50: 0.5 to 1 µM

## Cc1ccc(C2CCOCC2)cc1-c1cc(C(=O)Nc2ccncc2F)nn1C [Example 21, N-(3-Fluoro-pyridin-4-yl)-1-methyl-5-(2-methyl-5-tetrahydro-pyran-4-yl-phenyl)-1H-pyrazole-3-carboxylic acid amide]
[1]
  inhibition at 10 µM: 50 to 70%

## Cc1c(C(=O)Nc2ccncc2F)nn(C)c1-c1cccc(-c2nccs2)c1 [Example 29, N-(3-Fluoro-pyridin-4-yl)-1,4-dimethyl-5-(3-thiazol-2-yl-phenyl)-1H-pyrazole-3-carboxylic acid amide]
[1]
  inhibition at 10 µM: > 70%
